Consider 2 compounds from US10391081B2, “FGFR gatekeeper mutant gene and drug targeting same” (CHUGAI SEIYAKU KABUSHIKI KAISHA, priority 2013, dated 2019).

Molecules are shown by their SMILES.

The assay concerns the target T1, TEL-fused FGFR2 V564F mutant polypeptide (Homo sapiens, UniProt P21802, V564F).
T1 construct: expressed in transfected cells; for A6/A7 grown as subcutaneous tumours in BALB/c nude mice
The assay can be described thus: In vitro cell proliferation inhibition (WST-8), Ba/F3 strain stably expressing TEL-fused FGFR2 V564F mutant. It is filed as cell-based. The conditions noted are these: cultured four days, FIG. 3. The source says:
A polynucleotide encoding the dimerization domain of wild-type TEL (SEQ ID NO: 33) and a polynucleotide encoding the intracellular domain of wild-type FGFR2 (SEQ ID NO: 1) were fused by a PCR-based site-directed mutagenesis method to produce a polynucleotide (SEQ ID NO: 11) encoding the TEL-fused wild-type FGFR2 (SEQ ID NO: 34). Using the polynucleotide encoding the TEL-fused wild-type FGFR2 as a template, a polynucleotide (SEQ ID NO: 12) encoding the TEL-fused FGFR2 V564F mutant (SEQ ID NO: 35) was prepared by a PCR-based site-directed mutagenesis method.
(In general: Formazan colour is commonly taken as a measure of viable cells.)

T1 sequence (P21802 with tags, fused parts or gaps V564F): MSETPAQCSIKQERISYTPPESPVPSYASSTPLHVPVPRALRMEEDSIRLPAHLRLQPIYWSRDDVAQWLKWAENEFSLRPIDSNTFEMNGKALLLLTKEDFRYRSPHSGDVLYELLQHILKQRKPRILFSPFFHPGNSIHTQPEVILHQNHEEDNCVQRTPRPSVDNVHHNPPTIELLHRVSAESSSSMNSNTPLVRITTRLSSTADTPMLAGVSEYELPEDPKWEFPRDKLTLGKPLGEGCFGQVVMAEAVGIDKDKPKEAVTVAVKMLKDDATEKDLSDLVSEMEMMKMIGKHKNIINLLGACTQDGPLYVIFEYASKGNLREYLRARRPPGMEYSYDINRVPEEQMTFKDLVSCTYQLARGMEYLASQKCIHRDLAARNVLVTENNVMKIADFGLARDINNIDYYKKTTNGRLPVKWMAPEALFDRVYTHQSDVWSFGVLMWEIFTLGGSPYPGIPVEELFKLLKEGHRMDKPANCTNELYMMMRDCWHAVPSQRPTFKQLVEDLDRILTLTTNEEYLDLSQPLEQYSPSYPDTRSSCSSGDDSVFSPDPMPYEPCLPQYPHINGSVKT

Turning to `CCN1CCN(c2ccc(Nc3cc(N(C)C(=O)Nc4c(Cl)c(OC)cc(OC)c4Cl)ncn3)cc2)CC1` [Compound D, BGJ-398], the “cell proliferation-inhibiting activity compared to the strain stably expressing TEL-fused wild-type FGFR2” value is listed as “greatly weakened”. Consider `COc1cc2c(Oc3ccc4[nH]c(C)cc4c3F)ncnc2cc1OCCCN1CCCC1` [E, cediranib], for which the “cell proliferation-inhibiting activity compared to the strain stably expressing TEL-fused wild-type FGFR2” value is “greatly weakened”.
